The structures appear in SMILES notation. Read-outs that look alike come from different tables or passages of the source.

The target in one test is PI3Kα (Homo sapiens (Human), UniProt P42336). To be noted: read-out: PI3Kα AlphaScreen ® Ki.
In test [1] the test system is phosphorylation of Akt at Serine 473 in U87 MG cells. The experiment in a line: cells. To be noted: Homo sapiens, U-87 MG, 2 h.
The mark [2] stands for this setting: read-out: U87Cell IC50, pAkt (Ser 473), U87 MG cells, two hours with compound.

Sequence of PI3Kα (P42336 whole entry): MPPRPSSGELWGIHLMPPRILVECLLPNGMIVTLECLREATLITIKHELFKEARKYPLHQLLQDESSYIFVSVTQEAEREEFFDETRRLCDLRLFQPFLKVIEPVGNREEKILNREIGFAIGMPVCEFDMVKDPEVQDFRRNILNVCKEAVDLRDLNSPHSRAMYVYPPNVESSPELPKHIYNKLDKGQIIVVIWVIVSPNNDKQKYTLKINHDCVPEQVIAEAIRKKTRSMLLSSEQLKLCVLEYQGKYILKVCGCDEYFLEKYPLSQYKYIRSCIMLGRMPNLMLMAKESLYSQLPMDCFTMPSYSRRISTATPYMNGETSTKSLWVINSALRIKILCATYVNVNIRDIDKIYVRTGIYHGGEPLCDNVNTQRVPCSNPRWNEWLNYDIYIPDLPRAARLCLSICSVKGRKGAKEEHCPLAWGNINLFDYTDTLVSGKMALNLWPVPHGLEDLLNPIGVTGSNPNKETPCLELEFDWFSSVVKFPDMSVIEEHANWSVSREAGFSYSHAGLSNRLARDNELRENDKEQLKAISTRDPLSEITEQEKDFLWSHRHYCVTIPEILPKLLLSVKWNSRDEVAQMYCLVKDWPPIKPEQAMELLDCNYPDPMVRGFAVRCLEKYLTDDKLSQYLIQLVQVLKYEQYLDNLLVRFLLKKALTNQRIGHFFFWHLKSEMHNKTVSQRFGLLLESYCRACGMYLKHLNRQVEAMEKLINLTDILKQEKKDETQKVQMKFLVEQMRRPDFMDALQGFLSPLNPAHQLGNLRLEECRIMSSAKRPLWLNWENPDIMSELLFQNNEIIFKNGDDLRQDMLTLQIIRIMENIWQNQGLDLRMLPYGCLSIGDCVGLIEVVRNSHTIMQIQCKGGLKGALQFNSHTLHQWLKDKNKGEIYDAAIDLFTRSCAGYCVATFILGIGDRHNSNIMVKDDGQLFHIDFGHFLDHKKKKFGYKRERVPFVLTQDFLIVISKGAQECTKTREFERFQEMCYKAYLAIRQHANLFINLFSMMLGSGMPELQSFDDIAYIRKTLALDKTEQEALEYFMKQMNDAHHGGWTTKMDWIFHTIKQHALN
Sequence of PI3Kα (P27986 whole entry partner): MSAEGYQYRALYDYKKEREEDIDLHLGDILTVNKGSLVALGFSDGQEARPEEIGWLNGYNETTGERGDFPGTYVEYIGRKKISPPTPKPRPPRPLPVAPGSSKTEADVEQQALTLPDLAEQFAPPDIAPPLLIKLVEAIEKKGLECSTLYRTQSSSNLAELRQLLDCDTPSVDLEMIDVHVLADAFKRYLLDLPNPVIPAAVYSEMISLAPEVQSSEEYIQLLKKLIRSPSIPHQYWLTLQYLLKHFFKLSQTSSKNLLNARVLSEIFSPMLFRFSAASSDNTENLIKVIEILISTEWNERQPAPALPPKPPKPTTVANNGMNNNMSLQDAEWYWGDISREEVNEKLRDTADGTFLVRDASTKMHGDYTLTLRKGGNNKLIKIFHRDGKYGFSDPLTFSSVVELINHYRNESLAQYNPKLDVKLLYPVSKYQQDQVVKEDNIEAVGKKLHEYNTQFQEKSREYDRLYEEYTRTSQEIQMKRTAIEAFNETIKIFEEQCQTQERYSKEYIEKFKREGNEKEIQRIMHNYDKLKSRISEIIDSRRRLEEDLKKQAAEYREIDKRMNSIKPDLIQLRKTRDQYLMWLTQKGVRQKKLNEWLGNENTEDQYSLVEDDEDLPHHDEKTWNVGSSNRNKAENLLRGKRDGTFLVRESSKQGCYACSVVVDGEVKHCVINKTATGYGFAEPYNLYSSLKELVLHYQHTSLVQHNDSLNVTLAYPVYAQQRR

Regarding `COc1ccc(Nc2ncc(CN3CC4(C3)NC(=O)NC4=O)cc2-c2nc(C)nc(N)n2)cn1` [Example 230, 2-((5-(4-Amino-6-Methyl-1,3,5-Triazin-2-yl)-6-(6-Methoxypyridin-3-Ylamino)Pyridin-3-yl)Methyl)-2,5,7-Triazaspiro[3.4]Octane-6,8-Dione], the Ki on PI3Kα was 68 nM. The IC50 in test [1] (setting [2]) was determined as 2470 nM.

Turning to `COc1ccc(Nc2ncc(CN3CC(N)C3)cc2-c2nc(C)nc(N)n2)cn1` [Example 231, 4-(5-((3-Aminoazetidin-1-yl)Methyl)-2-(6-Methoxypyridin-3-Ylamino)Pyridin-3-yl)-6-Methyl-1,3,5-Triazin-2-Amine], the Ki at PI3Kα worked out at 446 nM. In test [1] (setting [2]), the IC50 is 404 nM.

Regarding `COc1ccc(Nc2ncc(CN3CC(NS(C)(=O)=O)C3)cc2-c2nc(C)nc(N)n2)cn1` [Example 232, N-(1-((5-(4-Amino-6-Methyl-1,3,5-Triazin-2-yl)-6-(6-Methoxypyridin-3-Ylamino)Pyridin-3-yl)Methyl)Azetidin-3-yl)Methanesulfonamide], the Ki at PI3Kα worked out at 39 nM. Further, in test [1] (setting [2]), the IC50 worked out at 78 nM.

Turning to `COc1ccc(Nc2ncc(CN3CCn4ncnc4C3)cc2-c2nc(C)nc(N)n2)cn1` [Example 233, 4-(5-((5,6-Dihydro-[1,2,4]Triazolo[1,5-A]Pyrazin-7(8H)-yl)Methyl)-2-(6-Methoxypyridin-3-Ylamino)Pyridin-3-yl)-6-Methyl-1,3,5-Triazin-2-Amine], the Ki on PI3Kα was 41 nM. Besides, the IC50 in test [1] (setting [2]) was 58 nM.

On to `COc1ccc(Nc2ncc(C(O)c3cc(Br)ccc3S(=O)(=O)N(C)C)cc2-c2nc(C)nc(N)n2)cn1` (stereo not drawn) [Example 235, 2-((5-(4-Amino-6-Methyl-1,3,5-Triazin-2-yl)-6-(6-Methoxypyridin-3-Ylamino)Pyridin-3-yl)(Hydroxy)Methyl)-4-Bromo-N,N-Dimethylbenzenesulfonamide], for which the inhibition constant Ki at PI3Kα stood at 23 nM. Also, the IC50 in test [1] (setting [2]) was over 10000 nM.

For the compound `COc1ccc(Nc2ncc(C(O)c3ccc(S(=O)(=O)N(C)C)cc3)cc2-c2nc(C)nc(N)n2)cn1` (stereo not drawn) [Example 236, 4-((5-(4-Amino-6-Methyl-1,3,5-Triazin-2-yl)-6-(6-Methoxypyridin-3-Ylamino)Pyridin-3-yl)(Hydroxy)Methyl)-N,N-Dimethylbenzenesulfonamide], the Ki at PI3Kα stood at 4 nM. Further, in test [1] (setting [2]), the IC50 was over 10000 nM.

Consider `COc1ccc(Nc2ncc(C(N)c3ccc(S(=O)(=O)N(C)C)cc3)cc2-c2nc(C)nc(N)n2)cn1` (stereo not drawn) [Example 237, 4-(Amino(5-(4-Amino-6-Methyl-1,3,5-Triazin-2-yl)-6-(6-Methoxypyridin-3-Ylamino)Pyridin-3-yl)Methyl)-N,N-Dimethylbenzenesulfonamide], for which the Ki at PI3Kα came to 18 nM. For the same compound, the concentration for half-maximal inhibition (IC50) in test [1] (setting [2]) was 46 nM.

As for `COc1ccc(Nc2nc3ccccc3cc2-c2nc(C)nc(N)n2)cn1` [Example 238, 3-(4-Amino-6-Methyl-1,3,5-Triazin-2-yl)-N-(6-Methoxypyridin-3-yl)Quinolin-2-Amine], the Ki on PI3Kα was 45 nM. Also, in test [1] (setting [2]), the IC50 turned out to be 245 nM.

For the compound `Cc1nc(N)nc(-c2cc(CN3CCN(S(C)(=O)=O)CC3)cnc2Nc2ccc3scnc3c2)n1` [Example 240, N-(3-(4-Amino-6-Methyl-1,3,5-Triazin-2-yl)-5-((4-(Methylsulfonyl)Piperazin-1-yl)Methyl)Pyridin-2-yl)Benzo[D]Thiazol-5-Amine], the Ki at PI3Kα came out at 8 nM. Moreover, the IC50 in test [1] (setting [2]) was found to be 43 nM.

On to `Cc1nc(N)nc(-c2cc(CN3CCN(S(C)(=O)=O)CC3)cnc2Nc2ccc3ncsc3c2)n1` [Example 241, N-(3-(4-Amino-6-Methyl-1,3,5-Triazin-2-yl)-5-((4-(Methylsulfonyl)Piperazin-1-yl)Methyl)Pyridin-2-yl)Benzo[D]Thiazol-6-Amine], for which the Ki at PI3Kα turned out to be 43 nM. For the same compound, the IC50 in test [1] (setting [2]) was found to be 87 nM.

`Cc1nc(N)nc(-c2cc(CN3CCN(S(C)(=O)=O)CC3)cnc2Nc2cn[nH]c2)n1` [Example 243, 4-(2-(1H-Pyrazol-4-Ylamino)-5-((4-(Methylsulfonyl)Piperazin-1-yl)Methyl)Pyridin-3-yl)-6-Methyl-1,3,5-Triazin-2-Amine]: the Ki on PI3Kα worked out at 163 nM. The half-inhibitory concentration (IC50) in test [1] (setting [2]) is 1520 nM.

On to `Cc1nc(N)nc(-c2cc(CN3CCN(S(C)(=O)=O)CC3)cnc2Nc2cc[nH]n2)n1` [Example 244, 4-(2-(1H-Pyrazol-3-Ylamino)-5-((4-(Methylsulfonyl)Piperazin-1-yl)Methyl)Pyridin-3-yl)-6-Methyl-1,3,5-Triazin-2-Amine], for which the Ki at PI3Kα stood at 1460 nM. Besides, in test [1] (setting [2]), the IC50 came out at 1490 nM.

Turning to `Cc1nc(N)nc(-c2cccnc2Nc2ccc(F)c(F)c2)n1` [Example 248], at PI3Kα, the inhibition constant Ki was 442 nM. In addition, in test [1] (setting [2]), the IC50 was determined as 2300 nM.

With `COc1ccc(Nc2ncc(C3=CCNCC3)cc2-c2nc(C)nc(N)n2)cn1` [Example 249, 4-(2-(6-Methoxypyridin-3-Ylamino)-5-(1,2,3,6-Tetrahydropyridin-4-yl)Pyridin-3-yl)-6-Methyl-1,3,5-Triazin-2-Amine], the Ki on PI3Kα is 21 nM. Further, the IC50 in test [1] (read-out: U87Cell IC50) is 88 nM.

For the compound `COc1ccc(Nc2ncc(-c3cn[nH]c3)cc2-c2nc(C)nc(N)n2)cn1` [Example 250, 4-(2-(6-Methoxypyridin-3-Ylamino)-5-(1H-Pyrazol-4-yl)Pyridin-3-yl)-6-Methyl-1,3,5-Triazin-2-Amine], the Ki on PI3Kα was determined as 11 nM. Also, the IC50 in test [1] (setting [2]) stood at 46 nM.

`COc1ccc(Nc2ncc(-c3ccnnc3)cc2-c2nc(C)nc(N)n2)cn1` [Example 252, 4-(2-(6-Methoxypyridin-3-Ylamino)-5-(Pyridazin-4-yl)Pyridin-3-yl)-6-Methyl-1,3,5-Triazin-2-Amine]: the Ki at PI3Kα stood at 60 nM. The half-inhibitory concentration (IC50) in test [1] (setting [2]) came out at 151 nM.

For the compound `COc1ccc(Nc2ncc(-c3cncc(F)c3)cc2-c2nc(C)nc(N)n2)cn1` [Example 253, 5-(4-Amino-6-Methyl-1,3,5-Triazin-2-yl)-5′-Fluoro-N-(6-Methoxypyridin-3-yl)-3,3′-Bipyridin-6-Amine], on PI3Kα, the inhibition constant (Ki) was 12 nM. Moreover, the 50% inhibitory concentration (IC50) in test [1] (setting [2]) worked out at 280 nM.

In the case of `COc1ccc(Nc2nc(-c3cccnc3)ccc2-c2nc(C)nc(N)n2)cn1` [Example 254, 5-(4-Amino-6-Methyl-1,3,5-Triazin-2-yl)-N-(6-Methoxypyridin-3-yl)-2,3′-Bipyridin-6-Amine], the inhibitory constant (Ki) on PI3Kα was 67 nM. The half-maximal inhibitory concentration (IC50) in test [1] (setting [2]) was 583 nM.

`COc1ncc(Nc2nc(-c3cccnc3)ccc2-c2nc(C)nc(N)n2)cc1F` [Example 255, 5-(4-Amino-6-Methyl-1,3,5-Triazin-2-yl)-N-(5-Fluoro-6-Methoxypyridin-3-yl)-2,3′-Bipyridin-6-Amine]: the Ki on PI3Kα stood at 4 nM. Moreover, the IC50 in test [1] (setting [2]) is 37 nM.

For the compound `Cc1nc(N)nc(-c2cc(Cl)cnc2Nc2cncc(F)c2)n1` [Example 257, 4-(5-Chloro-2-(5-Fluoropyridin-3-Ylamino)Pyridin-3-yl)-6-Methyl-1,3,5-Triazin-2-Amine], the Ki at PI3Kα was found to be 426 nM. The IC50 in test [1] (setting [2]) is over 10000 nM.

As to `Cc1nc(N)nc(-c2cc(-c3cnn(C)c3)cnc2Nc2cncc(F)c2)n1` [Example 258, 4-(2-(5-Fluoropyridin-3-Ylamino)-5-(1-Methyl-1H-Pyrazol-4-yl)Pyridin-3-yl)-6-Methyl-1,3,5-Triazin-2-Amine], on PI3Kα, the Ki came out at 14 nM. Also, in test [1] (setting [2]), the IC50 is 192 nM.

The values are drawn from patent publication US8772480B2, “Inhibitors of PI3 kinase and/or mTOR” (priority 2009, dated 2014).
